Assay results taken from US10597388B2, “Pyridazinone herbicides” (FMC CORPORATION, priority 2014, dated 2020).

Tests used:
Experiment in all cases: Test E greenhouse herbicide test, pre- and postemergence
Format in all cases: in vivo
[1] = system: panicum, fall (fall panicum, Panicum dichotomiflorum)
Outline: (§1)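 Compounds in surfactant-containing solvent are applied to soil right after sowing (silt loam) and, in parallel, to 1- to 4-leaf plants in a peat-based medium. Weed control is scored visually on a 0 (none) to 100 (complete) scale at 14 to 21 d.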

[2] = system: foxtail, giant (giant foxtail, Setaria faberii); conditions: Preemergence
Outline: as §1

[3] = system: pigweed, palmer (palmer pigweed, Amaranthus palmeri)
Outline: as §1

[4] = system: crabgrass, Brazilian (Brazilian crabgrass, Digitaria horizontalis)
Outline: as §1

[5] = system: momingglory (Ipomoea coccinea); conditions: Preemergence
Outline: as §1

[6] = system: horseweed (Conyza canadensis); conditions: Postemergence
Outline: as §1

[7] = system: foxtail, green (green foxtail, Setaria viridis); conditions: Preemergence
Outline: as §1

[8] = system: Italian ryegrass (Lolium multiflorum)
Outline: as §1

[9] = system: ragweed (common ragweed, Ambrosia elatior)
Outline: as §1

[10] = system: crabgrass, large (large crabgrass, Digitaria sanguinalis); conditions: Preemergence
Outline: as §1

corn (Zea mays) = system: corn (Zea mays)
Outline: as §1

[11] = system: field bindweed (Convolvulus arvensis)
Outline: as §1

[12] = system: nutsedge, yellow (yellow nutsedge, Cyperus esculentus); conditions: Preemergence
Outline: as §1

kochia (Kochia scoparia) = system: kochia (Kochia scoparia)
Outline: as §1

[13] = system: beggarticks (hairy beggarticks, Bidens pilosa)
Outline: as §1

[14] = system: velvetleaf (Abutilon theophrasti); conditions: Preemergence
Outline: as §1

[15] = system: barnyardgrass (Echinochloa crus-galli)
Outline: as §1

[16] = 62 g ai/ha, Postemergence, scale 0 to 100 (0 no effect, 100 complete control)
[17] = 62 g ai/ha, Preemergence, scale 0 to 100 (0 no effect, 100 complete control)
[18] = 125 g ai/ha, Postemergence, scale 0 to 100 (0 no effect, 100 complete control)
[19] = 125 g ai/ha, Preemergence, scale 0 to 100 (0 no effect, 100 complete control)
[20] = 250 g ai/ha, Postemergence, scale 0 to 100 (0 no effect, 100 complete control)
[21] = Postemergence, 31 g ai/ha, visual, scale 0 no effect to 100 complete control
[22] = Preemergence, 31 g ai/ha, scale 0 to 100, 0 no effect, 100 complete control
[23] = Preemergence, 250 g ai/ha, visual, scale 0 no effect to 100 complete control
[24] = 62 g ai/ha, scale 0 to 100 (0 no effect, 100 complete control)
[25] = 125 g ai/ha, scale 0 to 100 (0 no effect, 100 complete control)
[26] = 31 g ai/ha, scale 0 to 100, 0 no effect, 100 complete control
[27] = 250 g ai/ha, visual, scale 0 no effect to 100 complete control

CCOC(=O)Oc1c(C)nn(C)c(=O)c1-c1c(C)sc2c(C)cc(C)cc12 [Compound 83]
Plant response rating, Panicum, Fall [1, 16]: 70
Plant response rating, Panicum, Fall [1, 17]: 95
Plant response rating, Panicum, Fall [1, 18]: 80
Plant response rating, Panicum, Fall [1, 19]: 100
Plant response rating, Panicum, Fall [1, 20]: 90
Plant response rating, Panicum, Fall [1, 21]: 70
Plant response rating, Panicum, Fall [1, 22]: 90
Plant response rating, Panicum, Fall [1, 23]: 98
Plant response rating, Foxtail, Giant [2, 24]: 98
Plant response rating, Foxtail, Giant [2, 25]: 100
Plant response rating, Foxtail, Giant [2, 26]: 95
Plant response rating, Foxtail, Giant [2, 27]: 100
Plant response rating, Pigweed, Palmer [3, 16]: 40
Plant response rating, Pigweed, Palmer [3, 17]: 20
Plant response rating, Pigweed, Palmer [3, 18]: 50
Plant response rating, Pigweed, Palmer [3, 19]: 50
Plant response rating, Pigweed, Palmer [3, 20]: 60
Plant response rating, Pigweed, Palmer [3, 21]: 40
Plant response rating, Pigweed, Palmer [3, 22]: 0
Plant response rating, Pigweed, Palmer [3, 23]: 80
Plant response rating, Crabgrass, Brazil [4, 16]: 40
Plant response rating, Crabgrass, Brazil [4, 17]: 10
Plant response rating, Crabgrass, Brazil [4, 18]: 50
Plant response rating, Crabgrass, Brazil [4, 19]: 50
Plant response rating, Crabgrass, Brazil [4, 20]: 50
Plant response rating, Crabgrass, Brazil [4, 21]: 30
Plant response rating, Crabgrass, Brazil [4, 22]: 0
Plant response rating, Crabgrass, Brazil [4, 23]: 80
Plant response rating, Morningglory [5, 24]: 20
Plant response rating, Morningglory [5, 25]: 95
Plant response rating, Morningglory [5, 26]: 25
Plant response rating, Morningglory [5, 27]: 100
Plant response rating, Horseweed [6, 24]: 80
Plant response rating, Horseweed [6, 25]: 85
Plant response rating, Horseweed ([6]; 250 g ai/ha, scale 0 to 100 (0 no effect, 100 complete control)): 90
Plant response rating, Horseweed ([6]; 31 g ai/ha, visual, scale 0 no effect to 100 complete control): 75
Plant response rating, Foxtail, Green [7, 24]: 40
Plant response rating, Foxtail, Green [7, 25]: 95
Plant response rating, Foxtail, Green [7, 26]: 0
Plant response rating, Foxtail, Green [7, 27]: 70
Plant response rating, Ryegrass, Italian [8, 16]: 60
Plant response rating, Ryegrass, Italian [8, 17]: 95
Plant response rating, Ryegrass, Italian [8, 18]: 80
Plant response rating, Ryegrass, Italian [8, 19]: 98
Plant response rating, Ryegrass, Italian [8, 20]: 85
Plant response rating, Ryegrass, Italian [8, 21]: 60
Plant response rating, Ryegrass, Italian [8, 22]: 80
Plant response rating, Ryegrass, Italian [8, 23]: 100
Plant response rating, Ragweed [9, 16]: 50
Plant response rating, Ragweed [9, 17]: 75
Plant response rating, Ragweed [9, 18]: 70
Plant response rating, Ragweed [9, 19]: 95
Plant response rating, Ragweed [9, 20]: 75
Plant response rating, Ragweed [9, 21]: 60
Plant response rating, Ragweed [9, 22]: 70
Plant response rating, Ragweed [9, 23]: 98
Plant response rating, Crabgrass, Large [10, 24]: 5
Plant response rating, Crabgrass, Large [10, 25]: 40
Plant response rating, Crabgrass, Large [10, 26]: 0
Plant response rating, Crabgrass, Large [10, 27]: 20
Plant response rating, Corn (corn (Zea mays); [16]): 0
Plant response rating, Corn (corn (Zea mays); [17]): 0
Plant response rating, Corn (corn (Zea mays); [18]): 0
Plant response rating, Corn (corn (Zea mays); [19]): 0
Plant response rating, Corn (corn (Zea mays); [20]): 10
Plant response rating, Corn (corn (Zea mays); [21]): 0
Plant response rating, Corn (corn (Zea mays); [22]): 0
Plant response rating, Corn (corn (Zea mays); [23]): 0
Plant response rating, Field Bindweed [11, 16]: 70
Plant response rating, Field Bindweed [11, 17]: 5
Plant response rating, Field Bindweed [11, 18]: 70
Plant response rating, Field Bindweed [11, 19]: 35
Plant response rating, Field Bindweed [11, 20]: 75
Plant response rating, Field Bindweed [11, 21]: 60
Plant response rating, Field Bindweed [11, 22]: 0
Plant response rating, Field Bindweed [11, 23]: 100
Plant response rating, Nutsedge, Yellow [12, 24]: 65
Plant response rating, Nutsedge, Yellow [12, 25]: 70
Plant response rating, Nutsedge, Yellow [12, 26]: 65
Plant response rating, Nutsedge, Yellow [12, 27]: 75
Plant response rating, Kochia (kochia (Kochia scoparia); [16]): 60
Plant response rating, Kochia (kochia (Kochia scoparia); [17]): 0
Plant response rating, Kochia (kochia (Kochia scoparia); [18]): 75
Plant response rating, Kochia (kochia (Kochia scoparia); [19]): 0
Plant response rating, Kochia (kochia (Kochia scoparia); [20]): 65
Plant response rating, Kochia (kochia (Kochia scoparia); [21]): 40
Plant response rating, Kochia (kochia (Kochia scoparia); [22]): 0
Plant response rating, Kochia (kochia (Kochia scoparia); [23]): 75
Plant response rating, Beggarticks [13, 16]: 100
Plant response rating, Beggarticks [13, 17]: 100
Plant response rating, Beggarticks [13, 18]: 100
Plant response rating, Beggarticks [13, 19]: 100
Plant response rating, Beggarticks [13, 20]: 100
Plant response rating, Beggarticks [13, 21]: 98
Plant response rating, Beggarticks [13, 22]: 100
Plant response rating, Beggarticks [13, 23]: 100
Plant response rating, Velvetleaf [14, 24]: 35
Plant response rating, Velvetleaf [14, 25]: 70
Plant response rating, Velvetleaf [14, 26]: 0
Plant response rating, Velvetleaf [14, 27]: 100
Plant response rating, Barnyardgrass [15, 16]: 50
Plant response rating, Barnyardgrass [15, 17]: 30
Plant response rating, Barnyardgrass [15, 18]: 40
Plant response rating, Barnyardgrass [15, 19]: 35
Plant response rating, Barnyardgrass [15, 20]: 50
Plant response rating, Barnyardgrass [15, 21]: 40
Plant response rating, Barnyardgrass [15, 22]: 0
Plant response rating, Barnyardgrass [15, 23]: 75
